This note sets out measurements from PubChem BioAssay (NCI).

Several values for one entry are separate records, joined by “and”; a condition that tells them apart may be missing. Equal values may be shown once.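 The compound was tested at five concentrations on cells cultured in 96-well plates, with a 48-hour exposure period. The concentration for 50% growth inhibition is given as GI50. The concentration for full growth arrest is given as TGI.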

Common to all, as to test: NCI-60 cell line screen, 48 h
Test [1] deals with MOLT-4 leukemia.
In test [2] the test system is MCF7 breast.
The test system of test [3] is HCT-116 colon.
Test [4] deals with SK-MEL-28 melanoma.
For test [5], the system named is NCI-H23 lung.
Test [6] relates to SNB-75 CNS.
The test system of test [7] is HOP-92 NSCLC.
In test [8] the test system is DU-145 prostate.
For test [9], the system named is OVCAR-4 ovarian.
In test [10] the test system is NCI-H226 lung.

On to `O=c1c2cc(Br)ccc2oc2ccc(Br)cc12`, for which the TGI in test [1], in [2], in [3], in test [4], in test [5] and in test [6] was more than 100 µM throughout. Further, the TGI in test [7], in test [8], in test [9] and in [10] was more than 100 µM each time.

As to `COC(=O)Nc1ccc2ccc3c(NC(=O)OC)ccc4ccc1c2c43` (tested in a mixture with another compound), the GI50 in [1] was 7.07 µM; in test [2], 27.1 µM; in test [3], 5.43 µM; in test [4] it was 35.2 µM; in test [5], 11.5 µM; in test [6], 12.6 µM. Also, the GI50 in [7] was 1.62 µM; in [8] it was 14.8 µM; in test [9], 15.7 µM; in test [10] it was 9.2 µM. Further, the TGI was 33.7 µM in [1]; more than 50 µM in [2]; more than 50 µM in test [3]; more than 50 µM in [4]; more than 50 µM in test [5]; more than 50 µM in test [6]. Further, the TGI in [7] was 14.1 µM; in test [8], more than 50 µM; in [9], more than 50 µM; in test [10] it was 31.3 µM.

Regarding `S=C(Nc1ccccc1)c1ccccn1`, the GI50 in test [1] is 42.1 µM; in test [2], more than 100 µM; in test [3], 51.3 µM; in test [4], more than 100 µM; in test [5], 75 µM; in test [6], 54.5 µM. Also, the GI50 in test [7] is 54.3 µM; in [8], 53 µM; in test [9] it was 52.4 µM; in [10], more than 100 µM. For the same compound, the TGI in test [1], in test [2], in [3], in [4], in test [5] and in test [6] was more than 100 µM throughout. The TGI in [7], in [8], in test [9] and in test [10] was more than 100 µM throughout.

As to `Nc1cc(N)c2nc(-c3ccccc3)c(Nc3ccc(F)cc3)nc2c1`, the GI50 in test [1] is more than 100 µM; in [2] it was 12.5 µM; in test [3], 20.1 µM; in test [4] it was 20.4 µM; in test [5], 22.5 µM; in test [6], 20.8 µM. For the same compound, the GI50 was 13.1 µM in [7], 12 µM in test [8], 13.4 µM in test [9] and 17.9 µM in test [10]. In addition, the TGI in [1] was more than 100 µM; in test [2], more than 100 µM; in test [3], more than 100 µM; in test [4], 39.3 µM; in test [5] it was 49.1 µM; in test [6], 41.9 µM. Moreover, the TGI in test [7] came out at 43.6 µM; in test [8], 28.3 µM; in test [9], 48.8 µM; in [10] it was 47.5 µM.

In the case of `CN(C)c1cccc2[nH]c(-c3[nH]ncc3Nc3ccnc(N)n3)nc12`, the GI50 was 0.0258 µM in [1]; 0.0206 µM in test [2]; less than 0.01 µM in test [3]; 0.0183 µM in [4]; 0.0232 µM in [5]; less than 0.0108 µM in test [6]. Further, the GI50 in test [7] was 0.0152 µM; in test [8], 0.0175 µM; in [9] it was 0.0349 µM; in [10], less than 0.0159 µM. Also, the TGI amounted to 10.2 µM in test [1]; 1.15 µM in test [2]; 1.09 µM in [3]; 0.452 µM in test [4]; 0.217 µM in test [5]; 0.0302 µM in [6]. The TGI in [7] came out at 0.0603 µM; in test [8], 1.03 µM; in test [9] it was 0.706 µM; in test [10], 0.193 µM.

`Cn1cnc2c(F)c(Nc3ccc(Br)cc3Cl)c(C(=O)NOCCO)cc21`: the GI50 was > 10 µM and 62.2 µM in [1]; more than 100 µM in test [2]; 0.648 µM and 1.07 µM in test [3]; 0.0269 µM and 0.0268 µM in test [4]; 0.74 µM and 1.04 µM in test [5]; > 10 µM and 60.4 µM in test [6]. Also, the GI50 is 0.197 µM and 0.235 µM in test [7]; > 10 µM and 74.6 µM in [8]; > 10 µM and 22.7 µM in test [9]; > 10 µM and 23.9 µM in [10]. Moreover, the TGI in test [1] was more than 100 µM; in test [2], more than 100 µM; in test [3], more than 100 µM; in test [4], > 2.81 µM and 2.52 µM; in test [5], more than 100 µM; in test [6], more than 100 µM. Besides, the TGI is 6.14 µM and 8.67 µM in test [7]; more than 100 µM in test [8]; more than 100 µM in [9]; more than 100 µM in [10].

For the compound `Nc1nc(-n2cccn2)nc(-n2cccn2)c1Br`, the GI50 in test [1] was more than 100 µM; in test [2], more than 100 µM; in test [3] it was more than 100 µM; in test [4] it was more than 100 µM; in test [5], more than 100 µM; in test [6], 24.6 µM. The GI50 in test [7], in [8], in [9] and in test [10] was more than 100 µM each time. In addition, the TGI in [1], in test [2], in test [3], in test [4], in test [5] and in test [6] was more than 100 µM throughout. Moreover, the TGI in test [7], in test [8], in [9] and in [10] was more than 100 µM each time.

As to `COC(=O)c1c2c(c(C)[n+]([O-])c1C)C(=O)C=C(NCc1ccc(Cl)cc1)C2=O`, the GI50 in test [1] is 0.514 µM; in test [2], 0.267 µM; in [3] it was 0.249 µM; in [4], 0.733 µM; in [5] it was 0.572 µM; in test [6] it was 1.65 µM. The GI50 in test [7] was 1.93 µM; in test [8], 1.09 µM; in test [9], 0.229 µM; in [10] it was 1.43 µM. Besides, the TGI in test [1] stood at 2.92 µM; in test [2] it was 0.98 µM; in [3], 1.05 µM; in test [4], 2.59 µM; in [5], 2.9 µM; in test [6], 3.03 µM. Further, the TGI in test [7] is 4.09 µM; in [8] it was 2.32 µM; in [9], 1.03 µM; in test [10], 3.52 µM.

Take `O=C(O)CC(Cc1ccc2c(c1)OCO2)C(=O)O` (stereo not given): the TGI in [1], in test [2], in test [3], in test [4], in test [5] and in test [6] was more than 100 µM each time. The TGI in test [7], in test [8], in test [9] and in [10] was more than 100 µM throughout.

As for `COc1ncnc2c(NC3OC(CO)C(O)C3O)ncnc12` (stereo not given), the TGI in [1] was 1.94 µM; in test [2], 0.443 µM; in [3] it was 0.604 µM; in test [4], more than 100 µM; in test [5], 13.5 µM; in test [6], 6.38 µM. For the same compound, the TGI was 0.527 µM in test [7], 10 µM in test [8], 7.08 µM in test [9] and 3.82 µM in test [10].

On to `O=C1N=C2c3c(sc4c3CCCC4)N=CN2C1N=Nc1ccc(Cl)cc1` (stereo not given), for which the GI50 in test [1] is 13 µM; in [2], 20 µM; in test [3], 17.8 µM; in [4], 35.6 µM; in test [5], 12.3 µM; in [6], more than 100 µM. In addition, the GI50 in test [7] was 1.95 µM; in [8], 0.291 µM; in test [9] it was 51.9 µM; in test [10], 22.8 µM. Also, the TGI in [1] was 53 µM; in [2] it was 66.4 µM; in test [3], more than 100 µM; in test [4] it was more than 100 µM; in test [5] it was 63.9 µM; in test [6] it was more than 100 µM. In addition, the TGI in test [7] was 20.2 µM; in test [8], 25.3 µM; in [9], more than 100 µM; in test [10] it was more than 100 µM.

Turning to `CCN(CC)c1ccc(/C=N/NC(=O)c2ccc(Nc3ccnc(C(F)(F)F)c3)cc2)c(O)c1`, the GI50 in test [1] is 0.117 µM; in test [2], 0.326 µM; in test [3], 0.141 µM; in [4], 0.32 µM; in test [5], 0.428 µM; in test [6] it was 0.152 µM. The GI50 in test [7] is 1.05 µM; in test [8], 0.362 µM; in test [9], 0.152 µM; in test [10], 0.288 µM. Also, the TGI in test [1] is 1.38 µM; in test [2], more than 100 µM; in test [3] it was 1.34 µM; in test [4], more than 27.3 µM; in test [5], 9.8 µM; in test [6] it was 3.41 µM. Besides, the TGI in test [7] was more than 100 µM; in test [8], more than 46.9 µM; in test [9], more than 100 µM; in test [10] it was 2.34 µM.

On to `CCCCCC(=O)N1c2ccccc2NC2=C(C(=O)CC(c3ccc(OC)c(OC)c3)C2)C1c1ccc(C(F)(F)F)cc1` (stereo not given), for which the GI50 in test [1] was 8.9 µM; in test [2], 24.3 µM; in [3], 72.1 µM; in test [4], more than 100 µM; in test [5], more than 100 µM; in test [6], 15.3 µM. Moreover, the GI50 was 12.2 µM in test [7], more than 100 µM in test [8], 15.8 µM in test [9] and more than 100 µM in test [10]. Further, the TGI in test [1], in test [2], in [3], in test [4], in test [5] and in test [6] was more than 100 µM in each case. The TGI in test [7], in test [8], in [9] and in [10] was more than 100 µM throughout.

For `N#Cc1c(NC(=O)c2cccs2)[n+]([O-])c2ccccc2[n+]1[O-]`, the GI50 was more than 100 µM in test [1]; more than 100 µM in test [2]; more than 100 µM in [3]; more than 100 µM in [4]; more than 100 µM in test [5]; 49.5 µM in test [6]. Also, the GI50 is 81.7 µM in test [7], more than 100 µM in test [8], more than 100 µM in test [9] and 86.4 µM in test [10]. Moreover, the TGI in test [1], in test [2], in [3], in test [4], in test [5] and in [6] was more than 100 µM in each case. The TGI in test [7], in test [8], in test [9] and in test [10] was more than 100 µM throughout.

As for `CNC(=O)c1cc(Oc2ccc3nc(NC(=O)Nc4ccc(Cl)c(Cl)c4)sc3c2)ccn1`, the GI50 is more than 100 µM in [1]; 2.65 µM in test [2]; 1.88 µM in test [3]; 1.74 µM in test [4]; 2.78 µM in test [5]; 1.73 µM in test [6]. Further, the GI50 in test [7] is 2.66 µM; in test [8] it was 2.45 µM; in test [9] it was 2.06 µM; in [10], 2.28 µM. Further, the TGI is more than 100 µM in [1]; more than 100 µM in [2]; 4.35 µM in test [3]; 3.56 µM in [4]; more than 100 µM in test [5]; 3.61 µM in test [6]. Also, the TGI in [7] amounted to 5.39 µM; in test [8], 6.29 µM; in test [9], 4.03 µM; in test [10], 4.58 µM.

As for `c1ccc(-c2nc(Nc3ccc(-c4nc5ccccc5[nH]4)cc3)nc(N3CCOCC3)n2)cc1`, the GI50 in test [1] was 1.33 µM; in test [2], 0.877 µM; in test [3], 0.394 µM; in test [4] it was 1.56 µM; in test [5], 2.07 µM; in test [6] it was 1.63 µM. The GI50 in test [7] is 1.38 µM; in test [8], 1.21 µM; in test [9], 1.68 µM; in test [10] it was 2.4 µM. Moreover, the TGI in test [1] was determined as 3.53 µM; in test [2], 2.85 µM; in [3] it was 1.62 µM; in test [4] it was 3.09 µM; in [5] it was 4.78 µM; in test [6] it was 3.15 µM. In addition, the TGI was found to be 3.05 µM in test [7], 2.49 µM in test [8], 3.08 µM in test [9] and 4.58 µM in [10].
